Here are results for two compounds from patent US7514555B2, “Compounds for the treatment of metabolic disorders” (Wellstat Therapeutics Corporation, priority 2003, dated 2009).

Test [1] concerns db/db mice. Nature of the test: Antidiabetic effects in db/db mice, daily oral dosing for 4 weeks. In kind it is in vivo. To be noted: for effect on blood glucose (in words) / effect on free fatty acids (in words) / effect on serum triglycerides (in words): 4 weeks of daily oral dosing; for effect on blood glucose (in words): versus vehicle; for effect on free fatty acids (in words) / effect on serum triglycerides (in words): versus vehicle-treated db/db mice; for Glucose ± SEM: serum glucose; for Glucose ± SEM / Free Fatty Acids ± SEM / Triglycerides ± SEM: 100 mg/kg daily oral, 4 weeks; for Free Fatty Acids ± SEM / Triglycerides ± SEM: serum. From the text: (§1) Db/db mice have a defect in leptin signaling, leading to hyperphagia, obesity and diabetes. Moreover, unlike ob/ob mice on a C57BL/6J background, db/db mice on a C57BLKS background undergo failure of their insulin-producing pancreatic islet cells, resulting in progression from hyperinsulinemia (associated with peripheral insulin resistance) to hypoinsulinemic diabetes.
(§2) Male obese (db/db homozygote) C57BL/Ksola mice approximately 8 weeks of age, were obtained from Jackson Labs (Bar Harbor, Me.) and randomly assigned into groups of 5-7 animals such that the body weights (40-45 g) and serum glucose levels (≧300 mg/dl in fed state) were similar between groups; male lean (db/+heterozygote) mice served as cohort controls. A minimum of 7 days was allowed for adaptation after arrival. All animals were maintained under controlled temperature (23° C.), relative humidity (50±5%) and light (7:00-19:00), and allowed free access to standard chow (Formulab Diet 5008, Quality Lab Products, Elkridge, Md.) and water.
Treatment cohorts were given daily oral doses of vehicle, Compound BI (100 mg/kg), or Compound CR (100 mg/kg) for 4 weeks. At the end of the treatment period 100 μl of venous blood was withdrawn in a heparinized capillary tube from the retro-orbital sinus for serum chemistry analysis.

In test [2] the test system is db/db mice. Nature of the test: Antidiabetic effects in db/db mice, daily oral dosing for 2 weeks. Format: in vivo. As to conditions: for Glucose / Glucose (% of Control) / Free Fatty Acids ± SEM / Glucose ± SEM / Triglycerides ± SEM: 100 mg/kg daily oral; for Glucose / Glucose (% of Control): 2 weeks; for Glucose (% of Control): relative to vehicle control; for effect on blood glucose (in words) / effect on free fatty acids (in words) / effect on triglycerides (in words): 2 weeks of daily oral dosing; for Free Fatty Acids ± SEM / Glucose ± SEM / Triglycerides ± SEM: plasma serum, 2 weeks (Table IV).
Description: as §1, §2
[…] At the end of the treatment period 100 μl of venous blood was withdrawn in a heparinized capillary tube from the retro-orbital sinus for serum chemistry analysis.
The same procedure as Example 2 was followed.

Structures are written as SMILES. “Also recorded” adds a separate entry of the source.

`Cc1cccc(C)c1COc1cccc(C(=O)CCC(=O)O)c1` [Compound BI, 4-(3-(2,6-Dimethylbenzyloxy)-phenyl)-4-oxobutanoic acid, reference compound]: in the test on db/db mice [1], the “effect on blood glucose (in words)” value is reported as “significant reduction”, the “effect on free fatty acids (in words)” value is reported as “reduced”, the “effect on serum triglycerides (in words)” value is recorded as “reduced” and the “Glucose ± SEM” value turned out to be 189 ± 25 mg/dL. For the same compound, in the test with db/db mice [1], the “Free Fatty Acids ± SEM” value came to 1387 ± 101 µM and the “Triglycerides ± SEM” value worked out at 125 ± 11 mg/dL. In the test on db/db mice [2], the Glucose was determined as 317.4 ± 48.0 mg/dL, the “Glucose (% of Control)” value is given as 42 ± 6 % of Control, the “effect on blood glucose (in words)” value is recorded as “significant reduction” and the “effect on free fatty acids (in words)” value is “caused a decrease”. In the test with db/db mice [2], the “effect on triglycerides (in words)” value is “markedly reduce”, the “Free Fatty Acids ± SEM” value is listed as 1070.3 ± 96.4, the “Glucose ± SEM” value was found to be 317.4 ± 48.0 and the “Triglycerides ± SEM” value stood at 136.3 ± 18.1.
For `Cc1cccc(C)c1COc1cccc([C@H](O)CCC(=O)O)c1` [Compound CR, 4-(3-(2,6-Dimethylbenzyloxy)-phenyl)-4(R)-hydroxybutanoic acid], in the test with db/db mice [1], the “effect on blood glucose (in words)” value is on record as “significant reduction”, the “effect on free fatty acids (in words)” value is recorded as “reduced; also recorded: did result in a decrease”, the “effect on serum triglycerides (in words)” value was “reduced” and the “Glucose ± SEM” value amounted to 235 ± 49 mg/dL. Besides, in the test with db/db mice [1], the “Free Fatty Acids ± SEM” value stood at 1634 ± 78 µM and the “Triglycerides ± SEM” value amounted to 182 ± 29 mg/dL. In the test on db/db mice [2], the Glucose is reported as 263.2 ± 59.0 mg/dL, the “Glucose (% of Control)” value was 35 ± 8 % of Control, the “effect on blood glucose (in words)” value is “significant reduction” and the “effect on free fatty acids (in words)” value is listed as “not CR caused a decrease”. For the same compound, in the test with db/db mice [2], the “effect on triglycerides (in words)” value is “markedly reduce”, the “Free Fatty Acids ± SEM” value was 1326.3 ± 124.2, the “Glucose ± SEM” value amounted to 263.2 ± 59.0 and the “Triglycerides ± SEM” value is recorded as 86.3 ± 9.4.
